Assay results from US12350294B2, “Medium comprising serum replacement, IGF1, STAT3 activator and adrenal gland hormone without BFGF or rock inhibitor for producing corneal endothelial substitute cells from iPS cells and a method thereof” (KEIO UNIVERSITY, priority 2018, dated 2025).

Tests used:
Type in all cases: cell-based, human
[1] = test system: iPS cells (FF-I01s04 line); test: Differentiation induction inhibitory activity of ROCK inhibitor (immunostaining); conditions: medium containing fasudil 50 μM
Method: In the same manner as in Example 2 except that a medium containing fasudil (50 μM), which is a ROCK inhibitor, was used, the expression of ATP1A1 and ZO-1 was examined.

iPS cells (FF-I01s04) = test: Effect of TGF-beta 1 added to the induction medium, immunostaining after passage; conditions: TGF-beta 1 1 ng/mL added to induction medium
Method: Using a medium (hereinafter referred to as CECSi cell induction (+T) medium) obtained by adding TGF-beta 1 (R&D System Inc., #240-GMP (1 ng/mL)) to the differentiation induction medium prepared in Example 1, the effect thereof was investigated.
Induction of iPS cells (FF-I01s04) was started using CECSi cell induction medium or CECSi cell induction (+T) medium, and the first passage was performed on day 11 and the second passage was performed on […] from the start of induction. At the time of passage, the cells were collected using Accutase (Nacalai Tesque #12679-54), and suspended and seeded at a density of 1.5×10^5 cells/cm^2 in a 35 mm dish or 100 mm dish coated with iMatrix 511 at a concentration of 3 μg/ml, without changing the previous medium.
At day 15 (after the first passage) and day 17 (after the second passage) from the start of induction, the expression state of N-cadherin and PITX2 was examined by immunostaining in the same manner as in Example 2.

[2] = test system: iPS cells (FF-I01s04 line); test: Differentiation induction inhibitory activity of bFGF (quantitative PCR and immunostaining)
Method: In the same manner as in Example 1 except that a medium containing bFGF (2 ng/mL) was used, the expression of each gene was quantified. As is clear from the results, when bFGF was added, an increase in ATPA1 or NR3C2 expression was not observed, and therefore an increase in ATP1A1 expression, which is important as the function of corneal endothelial cells, was not observed, either.
The expression of ATP1A1 and ZO-1 in the cells cultured in a medium containing bFGF was examined in the same manner as in Example 2.

[3] = immunostaining, medium containing bFGF
[4] = quantitative PCR, medium containing bFGF 2 ng/mL, day 12

O=S(=O)(c1cccc2cnccc12)N1CCCNCC1 [fasudil]
expression of ATP1A1 in the cellular membrane [1]: low
expression of ZO-1 and cell shape [1]: Elongated cells poorly expressing ZO-1 appeared

TGF-beta 1: isoform of transforming growth factor beta, protein added to the medium
endothelial morphology after passage (iPS cells (FF-I01s04); day 15 and day 17): could be maintained
expression of N-cadherin after passage (iPS cells (FF-I01s04); day 15 and day 17, after first and second passage): maintained

bFGF: basic fibroblast growth factor
expression of ATP1A1 [2, 3]: remarkably low
expression of ZO-1 and cell shape [2, 3]: Elongated cells poorly expressing ZO-1 appeared
increase in ATP1A1 expression [2, 4]: not observed
increase in ATPA1 or NR3C2 expression [2, 4]: not observed
